The text below walks through data of ChEMBL document CHEMBL3785051, “Recent progress on third generation covalent EGFR inhibitors” (Bioorg Med Chem Lett, 2016).

The nature of series [1]: Antiproliferative activity against EGFR Del ex19/T790M mutant expressing human HCC827EPR cells assessed as cell viability after 72 hrs by CellTiterGlo analysis. Type of series: functional. On the technique in general: In ATP-based viability assays light output follows the ATP content of the culture.
A short description of series [2]: Antiproliferative activity against EGFR Del ex19 mutant expressing human PC9 cells assessed as cell viability after 72 hrs by CellTiterGlo analysis. Type of series: functional. Conditions: PC-9, 72 h.
The subject of the next series is NCI-H1975. Put plainly: Antiproliferative activity against EGFR L858R / T790M double mutant expressing human NCI-H1975 cells assessed as cell viability after 72 hrs by CellTiterGlo analysis. Type of series: functional. The note with it: NCI-H1975, 72 h.
A short description of series [3]: Oral bioavailability in Nu/Nu mouse at 20 mg/ kg. The note with it: in vivo. Type of series: ADME, organism-based.
In series [4] the test system is A-431. Put plainly: Antiproliferative activity against wild type EGFR expressing human A431 cells assessed as cell viability after 72 hrs by CellTiterGlo analysis. Type of series: functional. Conditions: A-431, 72 h.
In series [5] the test system is A-431. Briefly: Antitumor activity against human A431 cells xenografted in NCR Nu/Nu mouse assessed as tumor growth inhibition at 50 mg/kg, ip administered as bid. It counts as functional. Conditions: A-431, ip, read-out: TGI.
A short description of series [6]: Antiproliferative activity against EGFR Del 19 mutant expressing human HCC827 cells assessed as cell viability after 72 hrs by CellTiterGlo analysis. Type of series: functional. Conditions: HCC827, 72 h.
Series [7] concerns the target Epidermal growth factor receptor (Homo sapiens, UniProt P00533, EX19DEL). Briefly: Inhibition of EGFR Del ex19 mutant phosphorylation in human PC9 cells preincubated for 2 hrs by ELISA. It counts as cell-based, PC-9. For orientation: In an ELISA, binding on a coated surface is turned into a signal by an enzyme label.
Series [8] has as its target Epidermal growth factor receptor (Homo sapiens, UniProt P00533). Briefly: Inhibition of wild type EGFR phosphorylation in human LoVo cells preincubated for 2 hrs followed by EGF stimulation measured after 30 mins by ELISA. Type of series: cell-based.
Series [9] has as its target Epidermal growth factor receptor (Homo sapiens, UniProt P00533, L858R/T790M). Briefly: Inhibition of EGFR T790M/L858R double mutant phosphorylation in human H1975 cells preincubated for 2 hrs by ELISA. Type of series: cell-based.
Series [10] in a line: Clearance in patient with EGFR TKI-resistant NSCLC at 20 to 240 mg, po qd. It counts as ADME, organism-based. Conditions: human, in vivo.
Series [11] is described as follows: Half life in mouse at 25 mg/kg, po. Type of series: ADME, organism-based. The note with it: in vivo.
Series [12] in a line: Apparent half life in patient with EGFR TKI-resistant NSCLC at 20 to 240 mg, po qd. Type of series: ADME, organism-based. The note with it: human, in vivo, read-out: t1/2(app) (converted).

In general, GI50 refers to the concentration that inhibits growth by half. A word on the bioavailability: it is dose-corrected exposure relative to a reference, in per cent. High values mean much systemic uptake, low ones little systemic uptake. Usually IC50 stands for the midpoint of a concentration-inhibition curve. By CL/F is commonly meant the apparent clearance, not corrected for the fraction that reaches the circulation.

Epidermal growth factor receptor (Homo sapiens, UniProt P00533, EX19DEL), sequence (P00533 whole entry, looked up, stated change not applied): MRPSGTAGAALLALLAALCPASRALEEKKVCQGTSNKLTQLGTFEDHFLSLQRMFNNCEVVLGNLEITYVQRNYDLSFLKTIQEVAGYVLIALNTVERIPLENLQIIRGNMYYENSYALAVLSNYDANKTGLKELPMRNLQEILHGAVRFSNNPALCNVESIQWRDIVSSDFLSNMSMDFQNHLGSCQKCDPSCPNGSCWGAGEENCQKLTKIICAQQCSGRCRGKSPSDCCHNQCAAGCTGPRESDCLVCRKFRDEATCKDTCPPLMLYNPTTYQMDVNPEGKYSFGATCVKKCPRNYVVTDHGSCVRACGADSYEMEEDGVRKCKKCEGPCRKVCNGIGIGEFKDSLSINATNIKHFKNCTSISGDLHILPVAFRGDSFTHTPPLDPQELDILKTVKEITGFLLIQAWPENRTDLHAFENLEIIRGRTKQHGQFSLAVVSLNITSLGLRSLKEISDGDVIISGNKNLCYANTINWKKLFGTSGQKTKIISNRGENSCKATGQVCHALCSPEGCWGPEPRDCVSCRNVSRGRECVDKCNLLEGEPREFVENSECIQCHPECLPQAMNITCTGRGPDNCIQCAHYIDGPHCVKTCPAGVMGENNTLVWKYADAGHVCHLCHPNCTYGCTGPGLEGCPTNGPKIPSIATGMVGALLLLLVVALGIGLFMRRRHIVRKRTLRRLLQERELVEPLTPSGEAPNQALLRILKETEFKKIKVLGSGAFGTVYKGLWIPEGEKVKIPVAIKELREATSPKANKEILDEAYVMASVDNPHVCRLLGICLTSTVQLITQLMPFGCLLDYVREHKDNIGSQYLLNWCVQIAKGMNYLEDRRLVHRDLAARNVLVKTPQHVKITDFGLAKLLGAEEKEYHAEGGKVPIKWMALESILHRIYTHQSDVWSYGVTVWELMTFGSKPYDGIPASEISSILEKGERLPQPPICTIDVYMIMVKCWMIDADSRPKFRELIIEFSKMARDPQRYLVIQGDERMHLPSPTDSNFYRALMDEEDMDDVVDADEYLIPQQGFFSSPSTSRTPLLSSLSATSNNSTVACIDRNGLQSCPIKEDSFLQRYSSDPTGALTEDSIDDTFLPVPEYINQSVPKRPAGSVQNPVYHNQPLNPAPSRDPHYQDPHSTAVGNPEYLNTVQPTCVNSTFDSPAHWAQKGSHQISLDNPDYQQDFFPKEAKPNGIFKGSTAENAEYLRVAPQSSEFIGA
Epidermal growth factor receptor (Homo sapiens, UniProt P00533), sequence (P00533 whole entry): as the sequence (P00533 whole entry, looked up, stated change not applied) above
Epidermal growth factor receptor (Homo sapiens, UniProt P00533, L858R/T790M), sequence (P00533 25-1210 T790M/L858R limits assumed): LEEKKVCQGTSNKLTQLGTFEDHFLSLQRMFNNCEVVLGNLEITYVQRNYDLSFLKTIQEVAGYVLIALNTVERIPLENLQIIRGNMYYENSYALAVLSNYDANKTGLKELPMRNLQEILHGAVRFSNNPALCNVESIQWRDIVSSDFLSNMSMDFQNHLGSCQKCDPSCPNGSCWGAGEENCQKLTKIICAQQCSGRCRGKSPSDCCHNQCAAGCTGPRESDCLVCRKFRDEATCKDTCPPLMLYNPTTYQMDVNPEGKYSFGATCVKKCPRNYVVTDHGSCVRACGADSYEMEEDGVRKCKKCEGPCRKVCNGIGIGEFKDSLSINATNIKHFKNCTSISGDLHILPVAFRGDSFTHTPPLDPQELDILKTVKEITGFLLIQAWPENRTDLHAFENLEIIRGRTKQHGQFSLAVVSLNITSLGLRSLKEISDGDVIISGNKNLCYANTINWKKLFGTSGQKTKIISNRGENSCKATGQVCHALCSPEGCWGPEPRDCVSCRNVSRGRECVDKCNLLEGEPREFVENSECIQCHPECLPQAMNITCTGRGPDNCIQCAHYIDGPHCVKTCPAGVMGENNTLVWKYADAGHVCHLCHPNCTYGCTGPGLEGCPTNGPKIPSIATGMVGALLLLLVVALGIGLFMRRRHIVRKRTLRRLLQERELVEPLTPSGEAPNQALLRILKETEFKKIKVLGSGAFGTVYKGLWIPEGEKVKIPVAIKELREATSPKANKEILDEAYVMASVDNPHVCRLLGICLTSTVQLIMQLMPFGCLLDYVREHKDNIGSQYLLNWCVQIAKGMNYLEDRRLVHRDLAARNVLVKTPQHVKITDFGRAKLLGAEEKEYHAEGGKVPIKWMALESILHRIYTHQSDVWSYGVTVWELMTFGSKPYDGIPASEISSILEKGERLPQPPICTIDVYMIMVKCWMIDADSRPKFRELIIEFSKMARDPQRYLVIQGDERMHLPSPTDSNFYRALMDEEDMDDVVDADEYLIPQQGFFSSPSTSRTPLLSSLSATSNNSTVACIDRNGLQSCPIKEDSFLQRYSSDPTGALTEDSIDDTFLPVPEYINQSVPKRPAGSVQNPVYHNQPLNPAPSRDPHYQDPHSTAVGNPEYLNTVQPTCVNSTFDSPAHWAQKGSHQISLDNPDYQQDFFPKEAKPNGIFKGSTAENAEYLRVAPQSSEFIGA

In the case of `C=CC(=O)Nc1cccc(Nc2nc(Nc3ccc(N4CCN(C(C)=O)CC4)cc3OC)ncc2C(F)(F)F)c1` [ROCILETINIB], the 50% growth inhibitory concentration (GI50) is 7 nM in [1]; 7 nM in [2]; 7 nM with NCI-H1975; 547 nM in the series on A-431 [4]; 7 nM in series [6]. In series [3], this compound showed a bioavailability of 65%. The inhibition in vivo at 50 mg/kg in the series with A-431 [5] was 36%.
As to `C=CC(=O)Nc1cc(Nc2nccc(-c3cn(C)c4ccccc34)n2)c(OC)cc1N(C)CCNC`, the concentration for half-maximal inhibition (IC50) in [7] was 26 nM; in [8], 786 nM; in series [9], 45 nM.
In the same order, the values of `C=CC(=O)Nc1cc(Nc2nccc(-c3c[nH]c4ccccc34)n2)c(OC)cc1N(C)CCN(C)C` are 2 nM, 33 nM and 2 nM.
In the case of `C=CC(=O)Nc1cc(Nc2nccc(-c3cn(C)c4ccccc34)n2)c(OC)cc1N(C)CCN(C)C` [OSIMERTINIB], the CL/F in [10] is 237 mL/min. Besides, the half-life in [11] is 180 min; in [12] it was 2.29 days.
